Experimental data as given in patent US6214841A, “Antithrombotic compound” (Eli Lilly and Company, priority 1999, dated 2001).

Experiments:
factor Xa = assay: Inhibition of factor Xa amidase activity, chromogenic substrate (Kass); format: biochemical, human; details: average of 3 assays; read-out: Kass, inhibitor of factor Xa (converted)
rabbit AV shunt model = assay: Arterio-venous (AV) shunt model in the rabbit; format: in vivo; details: i.v. infusion
Description: Arterio-Venous (AV) Shunt Model in the Rabbit
Efficacy and potency of a compound are studied in a model of thrombosis in the anesthetized rabbit in which blood is shunted from the carotid artery through tubing to the left jugular vein. The shunt houses a thread upon which thrombotic material is deposited and is quantified in the presence and absence of a test compound. Specifically, the left jugular vein and right carotid artery are cannulated (PE 200 tubing, 22 cm). The tip of the arterial tubing is advanced approximately 1 cm and the tip of the venous tubing is advanced approximately 1 cm. The arterial and venous shunt segments are friction fitted into a center section of larger tubing (PE 260, 6 cm) with 4 strands of cotton thread (5.5 cm each), knotted together with a single knot at the end, in the lumen. Blood is circulated through the shunt for 15 min. The arterial and venous segments are clamped, the center section is detached, held vertically and the thread is carefully removed and weighed. The weight of a wet thread (38 mg, average of 10-4-stranded identical lengths) is subtracted from the total weight of the thread and thrombus. A drug is infused through a second catheter in the right jugular vein (2 cm inside vessel) starting 15 min before and throughout the 15 min period of blood circulation through the shunt. […]

human thrombin = assay: Inhibition of thrombin amidase activity, chromogenic substrate (Kass); format: biochemical; details: average of 3 assays; read-out: Kass, inhibitor of thrombin (converted)
Experimental: For example, thrombin hydrolyzes N-benzoyl-L-phenylalanyl-L-valyl-L-arginyl-p-nitroanilide, N-benzoyl-L-Phe-L-Val-L-Arg-p-nitroanilide.
The assay is carried out by mixing 50 μL buffer (0.03M Tris, 0.15M NaCl, pH 7.4) with 25 μL of human thrombin solution (purified human thrombin, Enzyme Research Laboratories, South Bend, Indiana, at 8 NIH units/mL) and 25 μL of test compound in a solvent (50% aqueous methanol (v:v)). Then 150 μL of an aqueous solution of the chromogenic substate (at 0.25 mg/mL) are added and the rates of hydrolysis of the substrate are measured by monitoring the reactions at 405 nm for the release of p-nitroaniline. Standard curves are constructed by plotting free thrombin concentration against hydrolysis rate. The hydrolysis rates observed with test compounds are then converted to "free thrombin" values in the respective assays by use of the standard curves. The bound thrombin (bound to test compound) is calculated by subtracting the amount of free thrombin observed in each assay from the known initial amount of thrombin used in the assay. The amount of free inhibitor in each assay is calculated by subtracting the number of moles of bound thrombin from the number of moles of added inhibitor (test compound). […]
Kass is calculated for a range of concentrations of test compounds and the mean value reported in units of liter per mole.

Structure (SMILES): N=C(N)NCCCC(NC(=O)[C@@H]1CCCN1C(=O)[C@@H]1NCC[C@H]2CCCC[C@H]21)C(=O)c1nc2ccccc2s1 (mixture of isomers) [DL-Arg-Ia, (1R,4aR,8aR)-Perhydroisoquinolin-1-ylcarbonyl-N-[(1RS)-4-[(aminoiminomethyl)amino]-1-(benzothiazol-2-ylcarbonyl)-butyl]-L-prolinamide. 1.5 H2 SO4]
- Kd (factor Xa): 3.32 nM
- ED50% (infusion dose to reduce thrombus weight by 50%) (rabbit AV shunt model): 0.008 mg/kg/h
- Kd (human thrombin): 2.84 nM
